The text below walks through data of PMC11204923, “Marine Cytotoxin Santacruzamate A Derivatives as Potent HDAC1-3 Inhibitors and Their Synergistic Anti-Leukemia Effects with Venetoclax” (Marine Drugs, 2024).

“And” between values parts separate entries of the source, which are not always exact repeats. Equal values may be shown once.

In assay [1] the target is T1, HDAC1 (Homo sapiens, UniProt Q13547).
T1 construct: purchased BPS Bioscience
Description: In vitro HDAC inhibition fluorescence assay, HDAC1. The assay is classed as biochemical. On the procedure:
(§1) All of the HDAC enzymes were purchased from BPS Bioscience. In vitro HDAC inhibition assays were conducted as previously described. In brief, 20 μL of recombinant HDAC enzyme solution (HDAC1-9, 11) was mixed with various concentrations of the tested compound (20 μL). […] After incubation at 37 °C for 2 h, the catalysis was stopped by the addition of 10 μL of developer containing 30 mg/mL trypsin and 6 μM trichostatin A (TSA). Then, 30 min later, the fluorescence intensity was measured using a microplate reader at excitation and emission wavelengths of 360 and 460 nm, respectively. The inhibition ratios were calculated from the fluorescence intensity readings of tested wells relative to those of control wells, and the IC50 curves and values were determined by GraphPad Prism 6.0, using the “log(inhibitor) vs. normalized response-variable slope” function.

In assay [2] the test system is HL-60 cells. Description: Cell viability assay (resazurin), HL-60. The assay is classed as cell-based. The conditions noted are these: Homo sapiens, HL-60, 72 h; read-out: IC50 anti-proliferative activity HL-60. On the procedure:
(§2) The AML cell lines MV4-11, THP-1, KASUMI-1 and HL-60 were purchased from Procell Life Science & Technology Co., Ltd. (Wuhan, China). THP-1 and KASUMI-1 were cultured in RPMI-1640 complete medium containing 10% fetal bovine serum and 1% penicillin and streptomycin. MV4-11 was cultured in IMDM complete medium containing 10% fetal bovine serum and 1% penicillin and streptomycin. HL-60 was cultured in IMDM complete medium containing 20% fetal bovine serum and 1% penicillin and streptomycin. All cell lines were cultured in an incubator with humidity set at 95%, temperature at 37 °C and 5% CO2.
(§3) MV4-11, THP-1, KASUMI-1 and HL-60 cells were plated in 96-well transparent plates (10,000 to 15,000 cells/100 μL) and after incubation overnight, cells were treated with gradient-diluted inhibitors with several concentrations. After the cells were incubated with inhibitors for 72 h, 1 mg/mL of Resazurin (Sigma-Aldrich, Saint Louis, MO, USA) was added (working concentration was 0.1 mg/mL). After incubation at 37 °C for about 3 h, the fluorescence intensity of […] was measured at 560 nm/590 nm (excitation/emission) with a Spectra Max i3 Microplate Reader, and the cell viability was determined. The IC50 curve was drawn using GraphPad Prism 9.5 software.

Assay [3] concerns the target T2, HDAC2 (Homo sapiens, UniProt Q92769).
T2 construct: purchased BPS Bioscience
Put plainly: In vitro HDAC inhibition fluorescence assay, HDAC2. The assay is classed as biochemical. As to the method:
as §1

Assay [4] addresses T3, HDAC7 (Homo sapiens, UniProt Q8WUI4).
T3 construct: purchased BPS Bioscience
T3 sequence (Q8WUI4 1-952): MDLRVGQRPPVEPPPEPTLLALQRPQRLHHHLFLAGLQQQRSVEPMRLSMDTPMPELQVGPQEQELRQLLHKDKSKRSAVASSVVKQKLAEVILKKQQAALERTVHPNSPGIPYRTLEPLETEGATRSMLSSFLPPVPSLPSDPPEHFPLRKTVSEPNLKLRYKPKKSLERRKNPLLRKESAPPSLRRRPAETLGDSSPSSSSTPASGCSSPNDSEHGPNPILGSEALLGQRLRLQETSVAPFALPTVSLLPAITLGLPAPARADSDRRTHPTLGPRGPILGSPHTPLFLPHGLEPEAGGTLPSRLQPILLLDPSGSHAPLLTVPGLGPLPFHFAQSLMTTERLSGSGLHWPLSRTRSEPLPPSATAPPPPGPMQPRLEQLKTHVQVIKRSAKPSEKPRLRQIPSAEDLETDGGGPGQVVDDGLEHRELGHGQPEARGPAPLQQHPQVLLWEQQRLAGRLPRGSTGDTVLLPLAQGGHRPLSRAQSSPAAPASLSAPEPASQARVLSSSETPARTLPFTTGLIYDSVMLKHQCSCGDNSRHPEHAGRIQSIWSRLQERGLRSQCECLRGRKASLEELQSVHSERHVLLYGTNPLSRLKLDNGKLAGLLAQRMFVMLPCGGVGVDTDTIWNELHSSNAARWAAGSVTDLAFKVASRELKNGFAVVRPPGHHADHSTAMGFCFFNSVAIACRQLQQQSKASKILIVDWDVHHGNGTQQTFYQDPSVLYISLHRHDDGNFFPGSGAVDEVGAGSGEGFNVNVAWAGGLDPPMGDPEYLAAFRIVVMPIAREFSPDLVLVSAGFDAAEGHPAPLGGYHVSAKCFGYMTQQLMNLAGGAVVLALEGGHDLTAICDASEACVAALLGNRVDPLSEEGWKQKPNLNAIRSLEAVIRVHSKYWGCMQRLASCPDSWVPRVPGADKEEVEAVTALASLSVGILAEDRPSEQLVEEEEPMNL
Description: In vitro HDAC inhibition fluorescence assay, HDAC7. The assay is classed as biochemical. On the procedure: All of the HDAC enzymes were purchased from BPS Bioscience. In vitro HDAC inhibition assays were conducted as previously described. In brief, 20 μL of recombinant HDAC enzyme solution (HDAC1-9, 11) was mixed with various concentrations of the tested compound (20 μL). The mixture was incubated at 37 °C for 1 h, and then, 10 μL of fluorogenic substrate (Boc-Lys (acetyl)-AMC for HDAC1, 2, 3 and 6; Boc-Lys (trifluoroacetyl)AMC for HDAC4, 5, 7, 8, 9 and 11) was added to achieve a final concentration of 50 μM. After incubation at 37 °C for 2 h, the catalysis was stopped by the addition of 10 μL of developer containing 30 mg/mL trypsin and 6 μM trichostatin A (TSA). Then, 30 min later, the fluorescence intensity was measured using a microplate reader at excitation and emission wavelengths of 360 and 460 nm, respectively. The inhibition ratios were calculated from the fluorescence intensity readings of tested wells relative to those of control wells, and the IC50 curves and values were determined by GraphPad Prism 6.0, using the “log(inhibitor) vs. normalized response-variable slope” function.

In assay [5] the test system is THP-1 cells. Description: Cell viability assay (resazurin), THP-1. The format is cell-based. Conditions: Homo sapiens, THP-1, 72 h; read-out: IC50 anti-proliferative activity THP-1. As to the method:
as §2, §3
(Resazurin is reduced to fluorescent resorufin, in cell work by metabolically active cells.)

T1 sequence (Q13547 whole entry): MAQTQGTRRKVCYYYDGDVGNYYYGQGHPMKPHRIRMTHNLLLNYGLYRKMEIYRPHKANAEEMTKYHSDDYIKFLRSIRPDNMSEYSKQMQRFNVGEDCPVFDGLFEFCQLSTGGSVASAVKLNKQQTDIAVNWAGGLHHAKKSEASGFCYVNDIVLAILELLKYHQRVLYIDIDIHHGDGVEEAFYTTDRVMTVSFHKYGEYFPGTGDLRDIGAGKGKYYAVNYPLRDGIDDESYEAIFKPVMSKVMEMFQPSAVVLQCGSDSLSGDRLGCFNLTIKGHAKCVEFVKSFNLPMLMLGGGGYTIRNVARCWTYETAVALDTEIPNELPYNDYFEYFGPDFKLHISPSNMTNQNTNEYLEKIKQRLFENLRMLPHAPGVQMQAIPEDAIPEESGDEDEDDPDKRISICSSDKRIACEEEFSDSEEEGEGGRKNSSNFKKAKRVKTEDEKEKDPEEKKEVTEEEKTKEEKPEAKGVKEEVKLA
T2 sequence (Q92769 whole entry): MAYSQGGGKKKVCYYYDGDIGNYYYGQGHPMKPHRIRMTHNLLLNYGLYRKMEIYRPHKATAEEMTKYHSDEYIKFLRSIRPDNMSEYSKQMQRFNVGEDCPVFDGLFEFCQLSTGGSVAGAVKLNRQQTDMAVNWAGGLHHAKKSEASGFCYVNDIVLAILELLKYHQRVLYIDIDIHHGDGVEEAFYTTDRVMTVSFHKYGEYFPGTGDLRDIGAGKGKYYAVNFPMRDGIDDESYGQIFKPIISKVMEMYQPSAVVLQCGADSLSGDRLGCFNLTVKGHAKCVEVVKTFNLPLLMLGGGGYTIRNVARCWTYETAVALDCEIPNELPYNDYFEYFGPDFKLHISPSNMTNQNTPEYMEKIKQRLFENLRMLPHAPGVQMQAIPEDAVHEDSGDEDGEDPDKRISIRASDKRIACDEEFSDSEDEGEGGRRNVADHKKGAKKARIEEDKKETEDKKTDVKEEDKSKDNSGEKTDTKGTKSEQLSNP

Turning to `CCCNNC(=O)C=Cc1ccc(CNCCc2ccccc2)cc1` [Compound 25c, 3-(4-((Phenethylamino)methyl)phenyl)-N′-propylacrylohydrazide], the IC50 was 28.1 nM and 28 nM in assay [1]; 480 ± 177 nM in assay [2]; 135 ± 13.3 nM in assay [3]; > 10000 nM in assay [4]; 392 ± 60.5 nM in assay [5]. The “Inhibition Rate of HDAC1 (%)” value in assay [1] (10 nM, 0.01 µM) is 31.1 ± 2.1%. For the same compound, the inhibition at 0.01 µM in assay [1] (10 nM, read-out: Inhibition Rate of HDAC1 (%)) is 31.1 ± 2.09%. In assay [1] (100 nM, read-out: Inhibition Rate of HDAC1 (%)), the inhibition at 0.1 µM was 83.6 ± 0.4%.

In general, IC50 refers to the point on the concentration scale where inhibition reaches its midpoint. For orientation: inhibition means the share of the control response that was lost under treatment.
